From a melting point compilation (Tetko et al.; mined from patent text by program, amines drawn as free bases though some values may be those of a salt) come the findings set out here.

In turn, `Cc1c(N2C[C@H](C)[C@H](NC(=O)C(F)(F)F)C2)c(F)c(N)c2c(=O)c(C(=O)O)cn(C3CC3)c12` (relative stereo) yielded a melting point of 253 to 254 °C. `CCN(CC)c1ccc(S(=O)(=O)NCCCCC(=O)O)cc1` yielded a melting point of 106 to 108 °C.

Compound `COc1nc(O)nn1C(C)C` had a melting point of 102 to 103 °C. For `O=C(O)c1nc(Cl)sc1Cl`, the melting point came out at 191 °C. Consider `CC1(C)CC(=C(c2ccc(O)cc2)c2ccc(C#CCCC(=O)O)cc2)CC(C)(C)C1`, for which the melting point lay in the range of 233 to 234 °C. The result for `O=[N+]([O-])c1cc(CO)ccc1Sc1nccnc1Cl` reads 110 to 113 °C; that for `FC(F)(F)c1ccc2nc(N3CCN(c4ncccc4C(F)(F)F)CC3)[nH]c2c1`, 221 to 224 °C; that for `CCN(CC)C(=O)c1nc(C)n2c1CN=C(c1ccccc1F)c1cc(Cl)ccc1-2`, 182 to 188 °C.

Consider `COc1cc2c(Nc3ccc(Sc4ccccn4)cc3)c(C#N)cnc2cc1F`, for which the melting point lay within 231 to 233 °C. Compound `C=C1C(c2ccccc2)=C(c2ccc(S(C)(=O)=O)cc2)C1(Cl)Cl` had a melting point of 124 to 126 °C.

For the compound `Cn1cc(-c2ccccc2)c(=O)c(-c2cccc(S(C)(=O)=O)c2)c1`, the melting point lay in the range of 176 to 181 °C.

`CCOC(=O)c1c(CN2CCOCC2)nc2cc(OC)c(OC)cc2c1-c1ccc(OC)c(OC)c1` returned a melting point of 146 to 147 °C.

Compound `CC(=N)NN(C)C(=O)OC(C)(C)C` had a melting point of 187 to 189 °C. Consider `CC(=O)NNc1ccnc2c(NC(=O)c3c(Cl)cccc3Cl)c(C)ccc12`, for which the melting point was greater than 250 °C.

As for `C#Cc1ccnc(NC(C)C)n1`, the melting point lay in the range of 84 to 85 °C.

The compound `COC(=O)c1ccc(CC(=O)c2ccccc2Cl)cc1` registered a melting point of 40 to 42 °C. Compound `COc1cc(C(F)(F)F)sc1CN1C(=O)C2(COc3cc4c(cc32)OCO4)c2ccccc21` (stereo unspecified) displayed a melting point of 178 to 180 °C. In the case of `CCOC(=O)c1cn(-c2csnn2)c2nc(Cl)c(F)cc2c1=O`, the melting point was 188 to 192 °C. As for `Cc1nc(C(O)(Cn2cncn2)c2ccc(Cl)cc2)sc1C` (stereo unspecified), the melting point was 174 °C. In turn, `COc1nccnc1NS(=O)(=O)c1scc(Cl)c1Cl` displayed a melting point of 152 °C. Under `CN(C(CCn1c(=O)[nH]c2ncccc2c1=O)C(=O)NO)S(=O)(=O)c1ccc(Oc2ccccc2)cc1` (stereo unspecified) stands 125 to 126 °C.

As usually defined, the melting point is the temperature of the solid-liquid transition.
